Assay results from patent US20250034159A1, “INHIBITORS OF EPIDERMAL GROWTH FACTOR RECEPTOR” (ORIC Pharmaceuticals, Inc., priority 2021, published 2025).
Where two headings read alike, the source gives them in different places.

Tests used:
Ba/F3_EGFR WT cells = assay: Biological Activity Assay D: BaF3 cell proliferation assay, EGFR wild-type (BaF3 WT); type: cell-based; settings: Ba/F3 EGFR, read-out: BaF3 WT IC50
BaF3_EGFR d19/CS cells = assay: Biological Activity Assay D: BaF3 cell proliferation assay, EGFR exon 19 deletion/C797S (BaF3 d19/CS); type: cell-based; settings: Ba/F3 EGFR, read-out: BaF3 d19/CS IC50
[1] = biological target: recombinant human EGFR exon 19 deletion/C797S double mutant protein (Homo sapiens (Human), UniProt P00533, C797S/DEL746-750); assay: Biological Activity Assay C: biochemical assay against EGFR exon 19 deletion/C797S protein (EGFR d19/CS)
Chain of recombinant human EGFR exon 19 deletion/C797S double mutant protein (P00533 other isoform, or with tags, fused parts or gaps C797S/del 1-668/del 746-750 limits assumed): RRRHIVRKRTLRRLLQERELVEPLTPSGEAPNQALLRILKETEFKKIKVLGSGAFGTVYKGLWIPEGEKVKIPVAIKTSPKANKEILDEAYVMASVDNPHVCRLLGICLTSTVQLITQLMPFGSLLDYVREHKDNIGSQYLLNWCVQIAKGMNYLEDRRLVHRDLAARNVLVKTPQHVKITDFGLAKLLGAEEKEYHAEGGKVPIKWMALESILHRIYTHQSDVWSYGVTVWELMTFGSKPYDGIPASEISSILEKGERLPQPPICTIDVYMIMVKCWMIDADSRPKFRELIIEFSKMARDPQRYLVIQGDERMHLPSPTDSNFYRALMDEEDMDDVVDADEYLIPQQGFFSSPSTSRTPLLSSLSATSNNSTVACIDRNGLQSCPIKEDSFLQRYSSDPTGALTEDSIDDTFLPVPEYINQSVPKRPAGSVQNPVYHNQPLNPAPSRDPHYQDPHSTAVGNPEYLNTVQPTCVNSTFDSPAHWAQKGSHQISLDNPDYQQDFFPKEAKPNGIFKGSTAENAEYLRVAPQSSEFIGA
Method in brief: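 Compounds were tested as 16-point serial dilutions (final DMSO 2.5%) with a Phosphosens peptide sensor/ATP working solution (40 uM/4 mM). The signal was read kinetically over 90 cycles at 120 s intervals. IC50s came from 4-parameter fits of per-well slopes.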

BaF3_EGFR LR/CS cells = assay: Biological Activity Assay D: BaF3 cell proliferation assay, EGFR L858R/C797S mutant (BaF3 LR/CS); type: cell-based; settings: Ba/F3 EGFR, read-out: BaF3 LR/CS IC50
[2] = Ba/F3_EGFR WT cells, ~72 hours, CellTiter-Glo
[3] = BaF3_EGFR d19/CS cells, ~72 hours, CellTiter-Glo
[4] = BaF3_EGFR LR/CS cells, ~72 hours, CellTiter-Glo

IC50 (Ba/F3_EGFR WT cells; [2]) | IC50 (BaF3_EGFR d19/CS cells; [3]) | IC50 [1] | IC50 (BaF3_EGFR LR/CS cells; [4]) | SMILES | IC50 (Ba/F3_EGFR WT cells; 72 h) | IC50 (BaF3_EGFR d19/CS cells; 72 h) | IC50 (BaF3_EGFR LR/CS cells; 72 h)
7880 nM | 525 nM | 4.18 nM | 928 nM | CC(C)(C)OC(=O)N1CCC=C(c2cc3c(-c4cn(C5CS(=O)(=O)C5)nc4-c4ccc(F)cc4)ncnc3o2)C1 [Example 146, tert-butyl 5-{4-[1-(1,1-dioxo-1λ6-thietan-3-yl)-3-(4-fluorophenyl)-1H-pyrazol-4-yl]furo[2,3-d]pyrimidin-6-yl}-3,6-dihydropyridine-1(2H)-carboxylate] | – | – | –
1700 nM | 32.4 nM | 0.47 nM | 51 nM | CC(C)(O)Cn1cc(-c2ncnc3oc(-c4cccnc4)cc23)c(-c2ccc(F)cc2)n1 [Example 255, 1-{3-(4-fluorophenyl)-4-[6-(pyridin-3-yl)furo[2,3-d]pyrimidin-4-yl]-1H-pyrazol-1-yl}-2-methylpropan-2-ol] | – | – | –
1360 nM | 26.9 nM | 0.09 nM | 8.8 nM | N=[S@@]1(=O)CC[C@@H](n2cc(-c3ncnc4oc(-c5ccccc5)cc34)c(-c3ccc(F)cc3)n2)C1 (single isomer, unassigned) [Example 247] | – | – | –
800 nM | 28.9 nM | 0.11 nM | 17.6 nM | O=S1(=O)CC(n2cc(-c3ncnc4oc(-c5ccccn5)cc34)c(-c3ccc(F)cc3)n2)C1 [Example 173, 3-{3-(4-fluorophenyl)-4-[6-(pyridin-2-yl)furo[2,3-d]pyrimidin-4-yl]-1H-pyrazol-1-yl}-1λ6-thietane-1,1-dione] | – | – | –
3890 nM | 260 nM | 2.89 nM | 96.1 nM | Fc1ccc(-c2nn(CC3CC(F)(F)C3)cc2-c2ncnc3oc(-c4ccccc4)cc23)cc1 [Example 123, 4-{1-[(3,3-difluorocyclobutyl)methyl]-3-(4-fluorophenyl)-1H-pyrazol-4-yl}-6-phenylfuro[2,3-d]pyrimidine] | – | – | –
2070 nM | 52.1 nM | 0.62 nM | 31 nM | CC1(C)C[C@H](n2cc(-c3ncnc4oc(-c5ccccc5)cc34)c(-c3ccc(F)cc3)n2)CO1 (single isomer, unassigned) [Example 238] | – | – | –
3000 nM | 162 nM | 1.04 nM | 81.9 nM | CS(=O)(=O)CCn1cc(-c2ncnc3[nH]c(-c4ccccc4)nc23)c(-c2ccc(F)cc2)n1 [Example 131, 6-{3-(4-fluorophenyl)-1-[2-(methanesulfonyl)ethyl]-1H-pyrazol-4-yl}-8-phenyl-9H-purine] | – | – | –
551 nM | 11.9 nM | 0.207 nM | 13.4 nM | Cn1ccc(-c2cc3c(-c4cn(CC(C)(C)O)nc4-c4ccc(F)cc4)ncnc3o2)n1 [Example 275, 1-{3-(4-fluorophenyl)-4-[6-(1-methyl-1H-pyrazol-3-yl)furo[2,3-d]pyrimidin-4-yl]-1H-pyrazol-1-yl}-2-methylpropan-2-ol] | – | – | –
3070 nM | 260 nM | 0.97 nM | 196 nM | CS(=O)(=O)[C@@H]1CC[C@H](n2cc(-c3ncnc4oc(-c5ccccc5)cc34)c(-c3ccc(F)cc3)n2)C1 (single isomer, unassigned) [Example 192] | – | – | –
630 nM | 21.9 nM | 0.09 nM | 8.87 nM | Cc1nn(C)c(C)c1-c1cc2c(-c3cn(CC(C)(C)O)nc3-c3ccc(F)cc3)ncnc2o1 [Example 252, 1-{3-(4-fluorophenyl)-4-[6-(1,3,5-trimethyl-1H-pyrazol-4-yl)furo[2,3-d]pyrimidin-4-yl]-1H-pyrazol-1-yl}-2-methylpropan-2-ol] | – | – | –
657 nM | 9.47 nM | 0.113 nM | 9.79 nM | CC(C)(O)Cn1cc(-c2ncnc3oc(-c4cccnc4O)cc23)c(-c2ccc(F)cc2)n1 [Example 283, 3-{4-[3-(4-fluorophenyl)-1-(2-hydroxy-2-methylpropyl)-1H-pyrazol-4-yl]furo[2,3-d]pyrimidin-6-yl}pyridin-2-ol] | – | – | –
1500 nM | 40 nM | 0.332 nM | 74.4 nM | CC(C)(O)Cn1cc(-c2ncnc3oc(-c4ccc(F)cn4)cc23)c(-c2ccc(F)cc2)n1 [Example 277, 1-{3-(4-fluorophenyl)-4-[6-(5-fluoropyridin-2-yl)furo[2,3-d]pyrimidin-4-yl]-1H-pyrazol-1-yl}-2-methylpropan-2-ol] | – | – | –
139 nM | 46.5 nM | 0.45 nM | 12.8 nM | C[C@H]1C[C@H](n2cc(-c3ncnc4oc(-c5ccccc5)cc34)c(-c3ccc(F)cc3)n2)CN1S(C)(=O)=O [Example 197, 4-{3-(4-fluorophenyl)-1-[(3S,5S)-1-(methanesulfonyl)-5-methylpyrrolidin-3-yl]-1H-pyrazol-4-yl}-6-phenylfuro[2,3-d]pyrimidine] | – | – | –
2370 nM | 287 nM | 5.1 nM | 88.5 nM | Fc1ccc(-c2nn([C@@H]3CCCCC3(F)F)cc2-c2ncnc3oc(-c4ccccc4)cc23)cc1 (single isomer, unassigned) [Example 230] | – | – | –
11300 nM | 461 nM | 3.08 nM | 399 nM | O=S1(=O)CC(n2cc(-c3ncnc4oc(-c5cccc(C(F)(F)F)c5)cc34)c(-c3ccc(F)cc3)n2)C1 [Example 169, 3-[3-(4-fluorophenyl)-4-{6-[3-(trifluoromethyl)phenyl]furo[2,3-d]pyrimidin-4-yl}-1H-pyrazol-1-yl]-1λ6-thietane-1,1-dione] | – | – | –
550 nM | 10.1 nM | 0.206 nM | 4.53 nM | Cn1cc(-c2cc3c(-c4cn(CC(C)(C)O)nc4-c4ccc(F)cc4)ncnc3o2)cn1 [Example 261, 1-{3-(4-fluorophenyl)-4-[6-(1-methyl-1H-pyrazol-4-yl)furo[2,3-d]pyrimidin-4-yl]-1H-pyrazol-1-yl}-2-methylpropan-2-ol] | – | – | –
2350 nM | 512 nM | 1.48 nM | 219 nM | CC1(C)CC(n2cc(-c3ncnc4oc(-c5ccccc5)cc34)c(-c3ccc(F)cc3)n2)CCO1 (centres unmarked) [Example 202, 4-[1-(2,2-dimethyloxan-4-yl)-3-(4-fluorophenyl)-1H-pyrazol-4-yl]-6-phenylfuro[2,3-d]pyrimidine] | – | – | –
3210 nM | 114 nM | 0.55 nM | 83.6 nM | CC(C)(O)CCn1cc(-c2ncnc3[nH]c(-c4ccccc4)nc23)c(-c2ccc(F)cc2)n1 [Example 145, 4-[3-(4-fluorophenyl)-4-(8-phenyl-9H-purin-6-yl)-1H-pyrazol-1-yl]-2-methylbutan-2-ol] | – | – | –
5200 nM | 187 nM | 2.27 nM | 89.7 nM | O=S1(=O)CC(n2cc(-c3ncnc4oc(-c5cccc(C6CC6)c5)cc34)c(-c3ccc(F)cc3)n2)C1 [Example 178, 3-{4-[6-(3-cyclopropylphenyl)furo[2,3-d]pyrimidin-4-yl]-3-(4-fluorophenyl)-1H-pyrazol-1-yl}-16-thietane-1,1-dione] | – | – | –
1040 nM | 111 nM | 0.55 nM | 37.2 nM | CC1(C)CC(Cn2cc(-c3ncnc4oc(-c5ccccc5)cc34)c(-c3ccc(F)cc3)n2)O1 (centres unmarked) [Example 220, 4-{1-[(4,4-dimethyloxetan-2-yl)methyl]-3-(4-fluorophenyl)-1H-pyrazol-4-yl}-6-phenylfuro[2,3-d]pyrimidine] | – | – | –
1870 nM | 68.1 nM | 1.45 nM | 16.1 nM | Fc1ccc(-c2nn([C@H]3CCOC[C@@H]3F)cc2-c2ncnc3oc(-c4ccccc4)cc23)cc1 (racemic) [Example 151, 4-[1-(3-fluorooxan-4-yl)-3-(4-fluorophenyl)-1H-pyrazol-4-yl]-6-phenylfuro[2,3-d]pyrimidine] | – | – | –
> 20000 nM | 893 nM | 21.6 nM | 2200 nM | Cc1noc(-c2cc3c(-c4cn(C5CS(=O)(=O)C5)nc4-c4ccc(F)cc4)ncnc3o2)n1 [Example 223, 3-{3-(4-fluorophenyl)-4-[6-(3-methyl-1,2,4-oxadiazol-5-yl)furo[2,3-d]pyrimidin-4-yl]-1H-pyrazol-1-yl}-1λ6-thietane-1,1-dione] | – | – | –
1800 nM | 60.4 nM | 1.04 nM | 22.3 nM | Fc1ccc(-c2nn([C@@H]3CCOC[C@H]3F)cc2-c2ncnc3oc(-c4ccccc4)cc23)cc1 (single isomer, unassigned) [Example 153] | – | – | –
4510 nM | 104 nM | 0.25 nM | 103 nM | Cc1ncccc1-c1cc2c(-c3cn(C4CS(=O)(=O)C4)nc3-c3ccc(F)cc3)ncnc2o1 [Example 249, 3-{3-(4-fluorophenyl)-4-[6-(2-methylpyridin-3-yl)furo[2,3-d]pyrimidin-4-yl]-1H-pyrazol-1-yl}-1λ6-thietane-1,1-dione] | – | – | –

SMILES | IC50 (Ba/F3_EGFR WT cells; [2]) | IC50 (BaF3_EGFR d19/CS cells; [3]) | IC50 [1] | IC50 (BaF3_EGFR LR/CS cells; [4]) | IC50 (Ba/F3_EGFR WT cells; 72 h) | IC50 (BaF3_EGFR d19/CS cells; 72 h) | IC50 (BaF3_EGFR LR/CS cells; 72 h)
CC(C)(O)Cn1cc(-c2ncnc3oc(-c4cccc(F)n4)cc23)c(-c2ccc(F)cc2)n1 [Example 281, 1-{3-(4-fluorophenyl)-4-[6-(6-fluoropyridin-2-yl)furo[2,3-d]pyrimidin-4-yl]-1H-pyrazol-1-yl}-2-methylpropan-2-ol] | – | – | 0.425 nM | – | 1840 nM | 57.1 nM | 80.7 nM
CCn1cc(-c2ncnc3oc(-c4ccccc4)cc23)c(-c2ccc(F)cc2)n1 [Example 179, 4-[1-ethyl-3-(4-fluorophenyl)-1H-pyrazol-4-yl]-6-phenylfuro[2,3-d]pyrimidine] | – | – | 0.39 nM | – | 2200 nM | 41 nM | 17.2 nM
